Laboratory results published in PubChem BioAssay AID328 (DTP/NCI, 2004).
“And” between values parts separate entries of the source, which are not always exact repeats. Equal entries are not always repeated. Toxic doses and inconclusive results are not listed.

System: BDF1 mice, P388 leukemia ip, median survival T/C
Assay: NCI In Vivo Anticancer Drug Screen. Data for tumor model P388 Leukemia (intraperitoneal) in B6D2F1 (BDF1) mice
Settings: endpoint: median survival time, higher = longer survival
In short: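 Vehicle-dosed animals serve as the reference; survival of compound-dosed, tumour-implanted mice is divided by it.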

[1] = dose: 25.0 mg/kg/injection, schedule: Q01DX009 (ip), vehicle: saline
[2] = dose: 50.0 mg/kg/injection, schedule: Q01DX009 (ip), vehicle: saline
[3] = dose: 50.0 mg/kg/injection, schedule: Q04DX003 (ip), vehicle: saline
[4] = dose: 100.0 mg/kg/injection, schedule: Q04DX003 (ip), vehicle: saline
[5] = dose: 200.0 mg/kg/injection, schedule: Q04DX003 (ip), vehicle: saline
[6] = dose: 100.0 mg/kg/injection, schedule: Q01DX009 (ip), vehicle: saline
[7] = dose: 50.0 mg/kg/injection, schedule: Q04DX003 (ip), vehicle: Klucel (hydroxypropylcellulose) (HPC)
[8] = dose: 100.0 mg/kg/injection, schedule: Q04DX003 (ip), vehicle: Klucel (hydroxypropylcellulose) (HPC)
[9] = dose: 200.0 mg/kg/injection, schedule: Q04DX003 (ip), vehicle: Klucel (hydroxypropylcellulose) (HPC)
[10] = dose: 50.0 mg/kg/injection, schedule: Q01DX009 (ip), vehicle: saline with Tween-80
[11] = dose: 100.0 mg/kg/injection, schedule: Q01DX009 (ip), vehicle: saline with Tween-80
[12] = dose: 200.0 mg/kg/injection, schedule: Q01DX009 (ip), vehicle: saline with Tween-80
[13] = dose: 100.0 mg/kg/injection, schedule: Q01DX001 (ip), vehicle: saline with Tween-80
[14] = dose: 6.25 mg/kg/injection, schedule: Q01DX009 (ip), vehicle: Klucel (hydroxypropylcellulose) (HPC)
[15] = dose: 12.5 mg/kg/injection, schedule: Q01DX009 (ip), vehicle: Klucel (hydroxypropylcellulose) (HPC)
[16] = dose: 25.0 mg/kg/injection, schedule: Q01DX009 (ip), vehicle: Klucel (hydroxypropylcellulose) (HPC)
[17] = dose: 50.0 mg/kg/injection, schedule: Q01DX009 (ip), vehicle: Klucel (hydroxypropylcellulose) (HPC)
[18] = dose: 100.0 mg/kg/injection, schedule: Q01DX009 (ip), vehicle: Klucel (hydroxypropylcellulose) (HPC)
[19] = dose: 200.0 mg/kg/injection, schedule: Q01DX009 (ip), vehicle: Klucel (hydroxypropylcellulose) (HPC)
[20] = dose: 25.0 mg/kg/injection, schedule: Q01DX009 (ip), vehicle: saline with Tween-80
[21] = dose: 100.0 mg/kg/injection, schedule: Q04DX003 (ip), vehicle: saline with Tween-80
[22] = dose: 400.0 mg/kg/injection, schedule: Q01DX009 (ip), vehicle: saline with Tween-80

Cc1c[n+]([O-])ccc1[N+](=O)[O-]
T/C [1]: 100 % of control | T/C [2]: 104 % of control | T/C [3]: 100 % of control | T/C [4]: 90 % of control and 95 % of control | T/C (dose: 150.0 mg/kg/injection, schedule: Q04DX003 (ip), vehicle: saline): 100 % of control | T/C [5]: 86 % of control

c1ccc(-c2c[n+]3cc4ccccc4cc3cn2)cc1
T/C [6]: 95 % of control | T/C [4]: 100 % of control | T/C (dose: 200.0 mg/kg/injection, schedule: Q01DX009 (ip), vehicle: saline): 91 % of control | T/C [5]: 113 % of control | T/C (dose: 400.0 mg/kg/injection, schedule: Q01DX009 (ip), vehicle: saline): 91 % of control | T/C (dose: 400.0 mg/kg/injection, schedule: Q04DX003 (ip), vehicle: saline): 95 % of control

CC(C)(CO)COC(=O)NC1=C(N2CC2)C(=O)C(NC(=O)OCC(C)(C)CO)=C(N2CC2)C1=O
T/C (dose: 0.75 mg/kg/injection, schedule: Q01DX009 (ip), vehicle: water): 151 % of control and 157 % of control | T/C (dose: 1.5 mg/kg/injection, schedule: Q01DX009 (ip), vehicle: water): 159 % of control and 178 % of control | T/C (dose: 3.0 mg/kg/injection, schedule: Q01DX009 (ip), vehicle: water): 181 % of control and 200 % of control | T/C (dose: 6.0 mg/kg/injection, schedule: Q01DX009 (ip), vehicle: water): 231 % of control and 205 % of control | T/C (dose: 12.0 mg/kg/injection, schedule: Q01DX009 (ip), vehicle: water): 232 % of control and 312 % of control

O=P(Cc1ccccc1)(C(O)c1ccccc1)C(O)c1ccccc1 (configuration not stated)
T/C [7]: 100 % of control | T/C [8]: 100 % of control | T/C [9]: 100 % of control

CS(=O)(=O)OCCC#N
T/C [1]: 113 % of control | T/C [2]: 91 % of control and 104 % of control | T/C [6]: 113 % of control | T/C (dose: 100.0 mg/kg/injection, schedule: Q04DX003 (ip), vehicle: alcohol): 110 % of control | T/C (dose: 150.0 mg/kg/injection, schedule: Q01DX009 (ip), vehicle: saline): 95 % of control

C1CC[N-]CC1.C1CC[N-]CC1.C1CC[N-]CC1.C1CC[N-]CC1.[Pt+4]
T/C (dose: 6.25 mg/kg/injection, schedule: Q01DX009 (ip), vehicle: saline): 110 % of control | T/C (dose: 12.5 mg/kg/injection, schedule: Q01DX009 (ip), vehicle: saline): 100 % of control

CCCCCCNc1c(F)c(C#N)c(F)c(F)c1C#N
T/C [10]: 103 % of control | T/C [11]: 93 % of control | T/C [12]: 110 % of control

C1CC[N-]CC1.C1CC[N-]CC1.[Co].[N-]=C=S.[N-]=C=S
T/C [13]: 99 % of control

O=C(O)CCSSc1ccc([N+](=O)[O-])cc1[N+](=O)[O-]
T/C [14]: 95 % of control | T/C (dose: 6.25 mg/kg/injection, schedule: Q04DX003 (ip), vehicle: Klucel (hydroxypropylcellulose) (HPC)): 100 % of control | T/C [15]: 100 % of control | T/C (dose: 12.5 mg/kg/injection, schedule: Q04DX003 (ip), vehicle: Klucel (hydroxypropylcellulose) (HPC)): 109 % of control | T/C [16]: 104 % of control | T/C (dose: 25.0 mg/kg/injection, schedule: Q04DX003 (ip), vehicle: Klucel (hydroxypropylcellulose) (HPC)): 109 % of control

C[C@@H]1C[C@H]2C(=CC1=O)CC[C@@H]1[C@@H]2CC[C@@]2(C)[C@H]1CC[C@]2(C)O
T/C [17]: 95 % of control | T/C [7]: 91 % of control | T/C [18]: 87 % of control | T/C [8]: 91 % of control and 103 % of control | T/C [19]: 108 % of control | T/C [9]: 96 % of control and 100 % of control

CS(=O)(=O)CC(O)(c1ccccc1)c1cccs1 (configuration not stated)
T/C [10]: 99 % of control | T/C [11]: 100 % of control | T/C [12]: 100 % of control

Cc1c(Cl)cnc(N)c1Cl (tested in a mixture with another compound)
T/C [10]: 96 % of control | T/C [11]: 156 % of control | T/C [12]: 105 % of control

C=CC(=O)c1c(O)cc(O)c2c1C(C)C(=O)O2 (configuration not stated)
T/C (dose: 75.0 mg/kg/injection, schedule: Q01DX009 (ip), vehicle: Klucel (hydroxypropylcellulose) (HPC)): 113 % of control

COC(=O)CCC(=O)CCC(C)C
T/C [20]: 107 % of control | T/C [10]: 103 % of control | T/C [11]: 92 % of control | T/C [21]: 111 % of control | T/C [12]: 103 % of control | T/C (dose: 200.0 mg/kg/injection, schedule: Q04DX003 (ip), vehicle: saline with Tween-80): 122 % of control | T/C [22]: 92 % of control | T/C (dose: 400.0 mg/kg/injection, schedule: Q04DX003 (ip), vehicle: saline with Tween-80): 116 % of control

COc1cccn(C/C=C(\C)CCC=C(C)C)c1=O
T/C [20]: 116 % of control | T/C [10]: 109 % of control | T/C (dose: 50.0 mg/kg/injection, schedule: Q04DX003 (ip), vehicle: saline with Tween-80): 91 % of control | T/C (dose: 80.0 mg/kg/injection, schedule: Q01DX009 (ip), vehicle: saline with Tween-80): 93 % of control | T/C [21]: 100 % of control | T/C (dose: 150.0 mg/kg/injection, schedule: Q01DX009 (ip), vehicle: saline with Tween-80): 116 % of control

COc1cccc(NC(=O)N2CCCCC2)c1
T/C [16]: 111 % of control | T/C [17]: 111 % of control | T/C [18]: 114 % of control | T/C [19]: 114 % of control

CC1(C)N=C(N)N=C(N)N1NC(=O)c1cccc(Cl)c1
T/C (dose: 50.0 mg/kg/injection, schedule: Q04DX003 (ip), vehicle: saline sonified): 109 % of control | T/C (dose: 100.0 mg/kg/injection, schedule: Q04DX003 (ip), vehicle: saline sonified): 109 % of control | T/C (dose: 200.0 mg/kg/injection, schedule: Q04DX003 (ip), vehicle: saline sonified): 109 % of control

CC(N)(/C=C/c1ccccc1)C(=O)O (configuration not stated)
T/C (dose: 50.0 mg/kg/injection, schedule: Q01DX005 (ip), vehicle: saline with Tween-80): 101 % of control | T/C (dose: 100.0 mg/kg/injection, schedule: Q01DX005 (ip), vehicle: saline with Tween-80): 97 % of control | T/C (dose: 200.0 mg/kg/injection, schedule: Q01DX005 (ip), vehicle: saline with Tween-80): 113 % of control

O=C(Nc1cc(Cl)c(NC(=O)c2ccccc2)c(Cl)c1)c1ccccc1
T/C (dose: 12.5 mg/kg/injection, schedule: Q01DX001 (ip), vehicle: saline with Tween-80): 100 % of control | T/C (dose: 25.0 mg/kg/injection, schedule: Q01DX001 (ip), vehicle: saline with Tween-80): 90 % of control and 95 % of control | T/C (dose: 50.0 mg/kg/injection, schedule: Q01DX001 (ip), vehicle: saline with Tween-80): 90 % of control | T/C [13]: 95 % of control

O=[N+]([O-])c1ccc(Cl)nc1
T/C [12]: 95 % of control

C[C@]12C=CC(=O)C=C1CC[C@H]1[C@@H]3CCC(=O)O[C@@]3(C)CC(=O)[C@@]12F
T/C [11]: 100 % of control | T/C [12]: 100 % of control | T/C [22]: 100 % of control

CCN(CC)CCCOC(=O)/C=C/c1c(C)[nH]c(=O)[nH]c1=O
T/C (dose: 25.0 mg/kg/injection, schedule: Q04DX003 (ip), vehicle: saline): 104 % of control | T/C [3]: 117 % of control | T/C [4]: 90 % of control

CC(C)(C)OC(=O)C(C=O)N1C(=O)c2ccccc2C1=O (configuration not stated)
T/C [13]: 95 % of control | T/C (dose: 200.0 mg/kg/injection, schedule: Q01DX001 (ip), vehicle: saline with Tween-80): 95 % of control | T/C (dose: 400.0 mg/kg/injection, schedule: Q01DX001 (ip), vehicle: saline with Tween-80): 100 % of control

O=C1C(Cl)=C(N=Nc2c(Cl)c(O)c3ccccc3c2O)C(=O)c2ccccc21
T/C (dose: 3.12 mg/kg/injection, schedule: Q01DX009 (ip), vehicle: Klucel (hydroxypropylcellulose) (HPC)): 110 % of control | T/C [14]: 115 % of control | T/C [15]: 116 % of control | T/C [16]: 109 % of control
